Test results reported in US20080176932A1, “Pharmaceutical Compositions Containing Baicalein And Baicalin With Synergistic Effect In Tumor Treatment” (priority 2005, published 2008).
Read-outs that look alike come from different tables or passages of the source.

How the values were obtained:
[1] = test system: human liver cancer cell line HepG2; test: MTT growth inhibition, baicalein and baicalin single or combination; type: cell-based
Source text: The results of experiments with human liver cancer cell line HepG2 are illustrated in Table 1;

[2] = test system: Human colon cancer cell line HCT116; test: as above; type: cell-based
Source text: Human colon cancer cell line HCT116—Table 2;

[3] = test system: Human hung cancer cell line A549; test: as above; type: cell-based
Source text: Human hung cancer cell line A549—Table 3;

[4] = test system: Human gastric cancer cell line MKN28; test: as above; type: cell-based
Source text: Human gastric cancer cell line MKN28—Table 4;

[5] = test system: Human leukemia cell line HL60; test: as above; type: cell-based
Source text: Human leukemia cell line HL60—Table 8.

[6] = test system: Murine melanoma cell line B 16; test: Solid tumor transplant model, baicalein and baicalin; type: in vivo; conditions: B16 mice, B 30 mg/kg i.p., day 1-10
Method: C57BL/6 female mice (weight approximately 20 g) were used in this study. Murine melanoma cell line B 16 cells, 2×10^6 tumor cells were implanted s.c. into the armpit of each mice after two passenges in vitro cultured. On the next day after implantation, mice were randomly grouped at 10 per group and received 0.1 ml/10 g weight of the drugs. […] The number of mice of each group was 10. Mice were weighed before and post the treatment. Animals were killed on day 15, and the tumors were removed and weighted.

L1210 cells [7] = type: in vivo; conditions: B 30 mg/kg i.p., day 1-10
Method: (§1) L1210 cells on the growth phase were injected at 1×10^5 cells via I.P. into BDF1 female mice (weight approximately 20 g). The next day of implantation, mice were grouped, and received an injection of 0.1 ml/10 g weight of the drug. […] The number of mice of each group was 10. Mice were weighed before and after the treatment. Survival time of each mouse was recorded. The results of changes in increasing of life span of mice were used in assessment of response. The increase of life span was determined as; increase of life span rate=(median survival time of treated animals/median survival time of control animals−1)×100%, the data were analyzed by t-test.

[8] = test system: human liver cancer cell line HepG2; test: MTT growth inhibition, baicalein and scutellarin single or combination; type: cell-based
[9] = test system: Human colon cancer cell line HCT116; test: as above; type: cell-based
[10] = test system: Human hung cancer cell line A549; test: as above; type: cell-based
[11] = test system: Human gastric cancer cell line MKN28; test: as above; type: cell-based
[12] = test system: Human breast cancer cell line MCF-7; test: as above; type: cell-based
Method: (§2) Cells were seeded onto 96-well plate at 5×10^3 cells/well, and grown in culture medium containing 10% fetal bovine serum (FBS). […] The viable cell growth was determined by MTT assay after 72-h continuous exposure.
(§3) A CI below 1 is an indication of synergy, while a CI equal to 1 represents addition, and a CI above 1 indicates antagonism.

[13] = test system: Human esophagus cancer cell line TE2; test: as above; type: cell-based
Method: as §2, §3

[14] = test system: Human prostate cancer cell line PC3; test: as above; type: cell-based
Method: as §2, §3

[15] = test system: Human leukemia cell line HL60; test: as above; type: cell-based
[16] = test system: Murine melanoma cell line B 16; test: Solid tumor transplant model, baicalein and scutellarin; type: in vivo, C57BL/6 female mice; conditions: B16 mice, B 30 mg/kg i.p., day 1-10
Method: C57BL/6 female mice (weight approximately 20 g) were used in this study. Murine melanoma cell line B 16 cells, 2×10^6 tumor cells were implanted s.c. into the armpit of each mice after two passenges in vitro cultured. On the next day after implantation, mice were randomly grouped at 10 per group and received 0.1ml/10 g weight of the drugs. […] The number of mice of each group was 10. Mice were weighed before and post the treatment. Animals were killed on day 15, and the tumors were removed and weighted.

L1210 cells [17] = type: in vivo; conditions: B 30 mg/kg i.p., day 1-10; remark: listed apart in the source
Method: as §1

[18] = test system: Human esophagus cancer cell line TE2
[19] = test system: Human breast cancer cell line MCF-7
[20] = test system: Human prostate cancer cell line PC3

O=c1cc(-c2ccccc2)oc2cc(O)c(O)c(O)c12 [B, baicalein]
Inhibition of cell growth (%) ([1]; single dose 2.5 μm): 7.4 ± 2% | Inhibition of cell growth (%) ([1]; single dose 5 μm): 34.93 ± 3% | Inhibition of cell growth (%) ([1]; single dose 10 μm): 50.2 ± 3% | Inhibition of cell growth (%) ([1]; single dose 20 μm): 58.5 ± 2.5% | Inhibition of cell growth (%) ([1]; single dose 40 μm): 89.18 ± 2% | Inhibition of cell growth (%) ([2]; single dose 2.5 μm): 5.8 ± 2% | Inhibition of cell growth (%) ([2]; single dose 5 μm): 20.5 ± 3% | Inhibition of cell growth (%) ([2]; single dose 10 μm): 29.2 ± 3% | Inhibition of cell growth (%) ([2]; single dose 20 μm): 41 ± 2.7% | Inhibition of cell growth (%) ([2]; single dose 40 μm): 89.15 ± 3% | Inhibition of cell growth (%) ([3]; single dose 2.5 μm): 13.5 ± 4% | Inhibition of cell growth (%) ([3]; single dose 5 μm): 17.18 ± 3% | Inhibition of cell growth (%) ([3]; single dose 10 μm): 39.2 ± 2% | Inhibition of cell growth (%) ([3]; single dose 20 μm): 63.85 ± 3.2% | Inhibition of cell growth (%) ([3]; single dose 40 μm): 96.41 ± 2% | Inhibition of cell growth (%) ([4]; single dose 2.5 μm): 7.7 ± 3% | Inhibition of cell growth (%) ([4]; single dose 5 μm): 37.11 ± 2.9% | Inhibition of cell growth (%) ([4]; single dose 10 μm): 53 ± 3.2% | Inhibition of cell growth (%) ([4]; single dose 20 μm): 58 ± 2% | Inhibition of cell growth (%) ([4]; single dose 40 μm): 77 ± 3% | Inhibition of cell growth (%) ([5]; single dose 2.5 μm): 6.5 ± 2% | Inhibition of cell growth (%) ([5]; single dose 5 μm): 21.8 ± 3% | Inhibition of cell growth (%) ([5]; single dose 10 μm): 41.32 ± 2.7% | Inhibition of cell growth (%) ([5]; single dose 20 μm): 67.6 ± 3.2% | Inhibition of cell growth (%) ([5]; single dose 40 μm): 86.77 ± 3.3% | Final Tumor WT. (g) Mean ± SD ([6]; day 15): 1.72 ± 0.09 g | Tumor Growth Inhibition % ([6]; day 15): 21.1% | Weight Change % [6]: <5% | Number of mice Surviving through 15 days/total number (L1210 cells [7]): 10/10 | ILS(%) increase of life span (L1210 cells [7]; L1210 mice): 31.6% | Inhibition of cell growth (%) ([8]; single dose 2.5 μm): 7.35 ± 2.2% | Inhibition of cell growth (%) ([8]; single dose 5 μm): 32.7 ± 2.3% | Inhibition of cell growth (%) ([8]; single dose 10 μm): 49.8 ± 2.1% | Inhibition of cell growth (%) ([8]; single dose 20 μm): 58.5 ± 1.2% | Inhibition of cell growth (%) ([8]; single dose 40 μm): 90.18 ± 2.5% | Inhibition of cell growth (%) ([9]; single dose 2.5 μm): 5.8 ± 2% | Inhibition of cell growth (%) ([9]; single dose 5 μm): 10.5 ± 2.3% | Inhibition of cell growth (%) ([9]; single dose 10 μm): 29.2 ± 2.7% | Inhibition of cell growth (%) ([9]; single dose 20 μm): 47 ± 3.1% | Inhibition of cell growth (%) ([9]; single dose 40 μm): 91.15 ± 2.5% | Inhibition of cell growth (%) ([10]; single dose 2.5 μm): 10.55 ± 1.2% | Inhibition of cell growth (%) ([10]; single dose 5 μm): 17.19 ± 2.2% | Inhibition of cell growth (%) ([10]; single dose 10 μm): 40.8 ± 3.2% | Inhibition of cell growth (%) ([10]; single dose 20 μm): 62.5 ± 2% | Inhibition of cell growth (%) ([10]; single dose 40 μm): 90.18 ± 2.1% | Inhibition of cell growth (%) ([11]; single dose 2.5 μm): 16.5 ± 1.1% | Inhibition of cell growth (%) ([11]; single dose 5 μm): 27.7 ± 2.1% | Inhibition of cell growth (%) ([11]; single dose 10 μm): 42.8 ± 2.3% | Inhibition of cell growth (%) ([11]; single dose 20 μm): 65.6 ± 3% | Inhibition of cell growth (%) ([11]; single dose 40 μm): 80.21 ± 2.5% | Inhibition of cell growth (%) ([12]; single dose 2.5 μm): 0.8 ± 2% | Inhibition of cell growth (%) ([12]; single dose 5 μm): 13.02 ± 2.5% | Inhibition of cell growth (%) ([12]; single dose 10 μm): 51.02 ± 2.2% | Inhibition of cell growth (%) ([12]; single dose 20 μm): 64.35 ± 2.2% | Inhibition of cell growth (%) ([12]; single dose 40 μm): 93 ± 2.5% | Inhibition of cell growth (%) ([13]; single dose 2.5 μm): 5 ± 2% | Inhibition of cell growth (%) ([13]; single dose 5 μm): 16.8 ± 1.2% | Inhibition of cell growth (%) ([13]; single dose 10 μm): 38.4 ± 2.1% | Inhibition of cell growth (%) ([13]; single dose 20 μm): 66.85 ± 2% | Inhibition of cell growth (%) ([13]; single dose 40 μm): 83.1 ± 2.1% | Inhibition of cell growth (%) ([14]; single dose 2.5 μm): 7.2 ± 5% | Inhibition of cell growth (%) ([14]; single dose 5 μm): 22.8 ± 6% | Inhibition of cell growth (%) ([14]; single dose 10 μm): 50.9 ± 5% | Inhibition of cell growth (%) ([14]; single dose 20 μm): 69.9 ± 5% | Inhibition of cell growth (%) ([14]; single dose 40 μm): 92.9 ± 7% | Inhibition of cell growth (%) ([15]; single dose 2.5 μm): 7.5 ± 2.7% | Inhibition of cell growth (%) ([15]; single dose 5 μm): 22.7 ± 2.2% | Inhibition of cell growth (%) ([15]; single dose 10 μm): 41.8 ± 2.7% | Inhibition of cell growth (%) ([15]; single dose 20 μm): 60.6 ± 3.2% | Inhibition of cell growth (%) ([15]; single dose 40 μm): 89.18 ± 2.1% | Final Tumor WT. (g) Mean ± SD ([16]; day 15): 1.72 ± 0.09 g | Tumor Growth Inhibition % ([16]; day 15): 21.1% | Number of mice through 15 days/total number [16]: 10/10 | Weight Change % [16]: <5% | Number of mice Through surviving 15 days/total number (L1210 cells [17]): 10/10 | ILS(%) increase of life span (L1210 cells [17]; L1210 mice): 31.6% | Inhibition of cell growth (%) ([18]; single dose 2.5 μm): 5.5 ± 1% | Inhibition of cell growth (%) ([18]; single dose 5 μm): 17.2 ± 2.8% | Inhibition of cell growth (%) ([18]; single dose 10 μm): 28 ± 2% | Inhibition of cell growth (%) ([18]; single dose 20 μm): 57.9 ± 2.1% | Inhibition of cell growth (%) ([18]; single dose 40 μm): 85.2 ± 2.3% | Inhibition of cell growth (%) ([19]; single dose 2.5 μm): 7.2 ± 2% | Inhibition of cell growth (%) ([19]; single dose 5 μm): 27.55 ± 2% | Inhibition of cell growth (%) ([19]; single dose 10 μm): 51 ± 3% | Inhibition of cell growth (%) ([19]; single dose 20 μm): 71.77 ± 2.5% | Inhibition of cell growth (%) ([19]; single dose 40 μm): 90.5 ± 2.5% | Inhibition of cell growth (%) ([20]; single dose 2.5 μm): 7.2 ± 5% | Inhibition of cell growth (%) ([20]; single dose 5 μm): 22.8 ± 6% | Inhibition of cell growth (%) ([20]; single dose 10 μm): 50.9 ± 5% | Inhibition of cell growth (%) ([20]; single dose 20 μm): 69.9 ± 5% | Inhibition of cell growth (%) ([20]; single dose 40 μm): 92.9 ± 7%
